Reference: patent US9090576B2, “2-substituted-p-quinone derivatives for treatment of oxidative stress diseases” (Edison Pharmaceuticals, Inc., priority 2008, dated 2015)

Key:
Type in all cases: cell-based
[1] = test system: Human dermal fibroblasts from Friedreich's Ataxia patients; experiment: Rescue of BSO-stressed FRDA fibroblasts (Calcein AM viability); details: BSO-stressed FRDA fibroblasts (GM04078), less than about 150 nM, read-out: EC50, protection against FRDA
Protocol: An initial screen was performed to identify compounds effective for the amelioration of redox disorders. Test samples, 4 reference compounds (Idebenone, decylubiquinone, Trolox and α-tocopherol acetate), and solvent controls were tested for their ability to rescue FRDA fibroblasts stressed by addition of L-buthionine-(S,R)-sulfoximine (BSO), as described in Jauslin et al., Hum. Mol. Genet. 11(24):3055 (2002), Jauslin et al., FASEB J. 17:1972-4 (2003), and International Patent Application WO 2004/003565. […] This specific BSO-mediated cell death can be prevented by administration of antioxidants or molecules involved in the antioxidant pathway, such as α-tocopherol, selenium, or small molecule glutathione peroxidase mimetics. However, antioxidants differ in their potency, i.e. the concentration at which they are able to rescue BSO-stressed FRDA fibroblasts.
MEM (a medium enriched in amino acids and vitamins, catalog no. 1-31F24-I) and Medium 199 (M199, catalog no. 1-21F22-I) with Earle's Balanced Salts, without phenol red, were purchased from Bioconcept. Fetal Calf Serum was obtained from PAA Laboratories. Basic fibroblast growth factor and epidermal growth factor were purchased from PeproTech. Penicillin-streptomycin-glutamine mix, L-buthionine (S,R)-sulfoximine, (+)-α-tocopherol acetate, decylubiquinone, and insulin from bovine pancreas were purchased from Sigma. Trolox (6-hydroxy-2,5,7,8-tetramethylchromane-2-carboxylic acid) was obtained from Fluka. Idebenone was obtained from Chemo Iberica. Calcein AM was purchased from Molecular Probes. Cell culture medium was made by combining 125 ml M199 EBS, 50 ml Fetal Calf Serum, 100 U/ml penicillin, 100 μg/ml streptomycin, 2 mM glutamine, 10 μg/ml insulin, 10 ng/ml EGF, and 10 ng/ml bFGF; MEM EBS was added to make the volume up to 500 ml. A 10 mM BSO solution was prepared by dissolving 444 mg BSO in 200 ml of medium with subsequent filter-sterilization. During the course of the experiments, this solution was stored at +4° C. The cells were obtained from the Coriell Cell Repositories (Camden, N.J.; repository number GM04078) and grown in 10 cm tissue culture plates. Every third day, they were split at a 1:3 ratio.
The test samples were supplied in 1.5 ml glass vials. The compounds were diluted with DMSO, ethanol or PBS to result in a 5 mM stock solution. Once dissolved, they were stored at −20° C. Reference antioxidants (Idebenone, decylubiquinone, α-tocopherol acetate and trolox) were dissolved in DMSO.
Test samples were screened according to the following protocol:
(§1) A culture with FRDA fibroblasts was started from a 1 ml vial with approximately 500,000 cells stored in liquid nitrogen. Cells were propagated in 10 cm cell culture dishes by splitting every third day in a ratio of 1:3 until nine plates were available. Once confluent, fibroblasts were harvested. For 54 micro titer plates (96 well-MTP) a total of 14.3 million cells (passage eight) were re-suspended in 480 ml medium, corresponding to 100 μl medium with 3,000 cells/well. The remaining cells were distributed in 10 cm cell culture plates (500,000 cells/plate) for propagation. The plates were incubated overnight at 37° C. in an atmosphere with 95% humidity and 5% CO2 to allow attachment of the cells to the culture plate.
(§2) MTP medium (243 μl) was added to a well of the microtiter plate. The test compounds were unfrozen, and 7.5 μl of a 5 mM stock solution was dissolved in the well containing 243 μl medium, resulting in a 150 μM master solution. Serial dilutions from the master solution were made. The period between the single dilution steps was kept as short as possible (generally less than 1 second).
Plates were kept overnight in the cell culture incubator. The next day, 10 μl of a 10 mM BSO solution were added to the wells, resulting in a 1 mM final BSO concentration. Forty-eight hours later, three plates were examined under a phase-contrast microscope to verify that the cells in the 0% control (wells E1-H1) were clearly dead. […]

[2] = test system: human dermal fibroblasts from LHON patients; experiment: Rescue of BSO-stressed fibroblasts from LHON patients (screen as Example A); details: Fibroblast, BSO-stressed LHON fibroblasts (GM03858), less than about 150 nM, read-out: EC50, protection against LHON
Protocol: as §1, §2
(§3) Plates were kept overnight in the cell culture incubator. The next day, 10 μl of a 10 mM BSO solution were added to the wells, resulting in a 1 mM final BSO concentration. Forty-eight hours later, three plates were examined under a phase-contrast microscope to verify that the cells in the 0% control (wells E1-H1) were clearly dead. The medium from all plates was discarded, and the remaining liquid was removed by gently tapping the plate inversed onto a paper towel.
(§4) 100 μl of PBS containing 1.2 μM Calcein AM were then added to each well. The plates were incubated for 50-70 minutes at room temperature. After that time the PBS was discarded, the plate gently tapped on a paper towel and fluorescence (excitation/emission wavelengths of 485 nm and 525 nm, respectively) was read on a Gemini fluorescence reader. Data was imported into Microsoft Excel (EXCEL is a registered trademark of Microsoft Corporation for a spreadsheet program) and used to calculate the EC50 concentration for each compound.
(§5) Compounds of the invention were screened as described in Example A, but substituting FRDA cells with Leber's Hereditary Optic Neuropathy (LHON) cells obtained from the Coriell Cell Repositories (Camden, N.J.; repository number GM03858). The compounds were tested for their ability to rescue human dermal fibroblasts from LHON patients from oxidative stress.

[3] = test system: human dermal fibroblasts from Parkinson's Disease patients; experiment: Rescue of BSO-stressed fibroblasts from Parkinson's Disease patients (screen as Example A); details: Fibroblast, BSO-stressed Parkinson's Disease fibroblasts (AG20439), less than about 150 nM, read-out: EC50, protection against PD
Protocol: as §1, §2, §3, §4
as §5, with “Parkinson's Disease (PD)” for “Leber's Hereditary Optic Neuropathy (LHON)”, “AG20439).” for “GM03858).”, “Parkinson's Disease” for “LHON”

[4] = test system: human dermal fibroblasts from Huntington's patients; experiment: Rescue of BSO-stressed fibroblasts from Huntington's patients (screen as Example A); details: Fibroblast, BSO-stressed Huntington's fibroblasts (GM 04281), less than about 150 nM, read-out: EC50, protection against Huntington's
Protocol: as §1, §2, §3, §4
as §5, with “tested using the screen” for “screened”, “Huntington's” for “Leber's Hereditary Optic Neuropathy (LHON)”, “GM 04281).” for “GM03858).”, “Huntington's” for “LHON”

Measured: EC50

CC1=C(C)C(=O)C(CCCC(=O)Nc2cccc(Cl)c2Cl)=C(C)C1=O [N-(2,3-dichlorophenyl)-4-(2,4,5-trimethyl-3,6-dioxocyclohexa-1,4-dienyl)butanamide]
< 150 nM: all assays above

CC1=C(C)C(=O)C(CCNC(=O)NCc2ccc(Cl)cc2)=C(C)C1=O [1-(4-chlorobenzyl)-3-(2-(2,4,5-trimethyl-3,6-dioxocyclohexa-1,4-dienyl)ethyl)urea]
< 150 nM: all assays above

COc1ccc(NC(=O)CCCC2=C(C)C(=O)C(C)=C(C)C2=O)cc1 [N-(4-methoxyphenyl)-4-(2,4,5-trimethyl-3,6-dioxocyclohexa-1,4-dienyl)butanamide]
< 150 nM: all assays above

CC1=C(C)C(=O)C(CCCC(=O)Nc2cc(F)cc(F)c2)=C(C)C1=O [N-(3,5-difluorophenyl)-4-(2,4,5-trimethyl-3,6-dioxocyclohexa-1,4-dienyl)butanamide]
< 150 nM: all assays above

CC1=C(C)C(=O)C(CCCC(=O)Nc2ccc(F)c(F)c2)=C(C)C1=O [N-(3,4-difluorophenyl)-4-(2,4,5-trimethyl-3,6-dioxocyclohexa-1,4-dienyl)butanamide]
< 150 nM: all assays above

CC1=C(C)C(=O)C(CCCC(=O)Nc2c(F)cccc2F)=C(C)C1=O [N-(2,6-difluorophenyl)-4-(2,4,5-trimethyl-3,6-dioxocyclohexa-1,4-dienyl)butanamide]
< 150 nM: all assays above

CC1=C(C)C(=O)C(CCC(C)C(=O)NCc2ccccc2)=C(C)C1=O (stereo not shown) [N-benzyl-2-methyl-4-(2,4,5-trimethyl-3,6-dioxocyclohexa-1,4-dienyl)butanamide]
< 150 nM: all assays above

CC1=C(C)C(=O)C(CCNC(=O)Cc2ccc(F)cc2)=C(C)C1=O [2-(4-fluorophenyl)-N-(2-(2,4,5-trimethyl-3,6-dioxocyclohexa-1,4-dienyl)ethyl)acetamide]
< 150 nM: all assays above

CC1=C(CCNS(=O)(=O)c2ccc(F)cc2)C(=O)C(c2ccc(Cl)cc2)=C(C)C1=O [N-(2-(5-(4-chlorophenyl)-2,4-dimethyl-3,6-dioxocyclohexa-1,4-dienyl)ethyl)-4-fluorobenzenesulfonamide]
< 150 nM: [1] | [3] | [4]

CC1=C(C)C(=O)C(CCCC(=O)Nc2ccc(Cl)c(Cl)c2)=C(C)C1=O [N-(3,4-dichlorophenyl)-4-(2,4,5-trimethyl-3,6-dioxocyclohexa-1,4-dienyl)butanamide]
< 150 nM: all assays above

CC1=C(CCNC(N)=O)C(=O)C(c2ccc(Cl)cc2)=C(C)C1=O [1-(2-(5-(4-chlorophenyl)-2,4-dimethyl-3,6-dioxocyclohexa-1,4-dienyl)ethyl)urea]
< 150 nM: all assays above

CC1=C(C)C(=O)C(CCNC(=O)c2ccc(C(F)(F)F)cc2)=C(C)C1=O [4-(Trifluoromethyl)-N-(2-(2,4,5-trimethyl-3,6-dioxocyclohexa-1,4-dienyl)ethyl)benzamide]
< 150 nM: [1] | [2] | [3]

CC1=C(C)C(=O)C(CCNC(=O)NCCO)=C(C)C1=O [1-(2-hydroxyethyl)-3-(2-(2,4,5-trimethyl-3,6-dioxocyclohexa-1,4-dienyl)ethyl)urea]
< 150 nM: all assays above

CC1=C(C)C(=O)C(CCCC(=O)Nc2cc(Cl)ccc2Cl)=C(C)C1=O [N-(2,5-dichlorophenyl)-4-(2,4,5-trimethyl-3,6-dioxocyclohexa-1,4-dienyl)butanamide]
< 150 nM: all assays above

COc1ccc(S(=O)(=O)NCCC2=C(C)C(=O)C(C)=C(C)C2=O)cc1 [4-methoxy-N-(2-(2,4,5-trimethyl-3,6-dioxocyclohexa-1,4-dienyl)ethyl)benzenesulfonamide]
< 150 nM: all assays above

CC1=C(C)C(=O)C(CCNS(=O)(=O)c2ccc(F)cc2)=C(C)C1=O [4-fluoro-N-(2-(2,4,5-trimethyl-3,6-dioxocyclohexa-1,4-dienyl)ethyl)benzenesulfonamide]
< 150 nM: all assays above

CC1=C(C)C(=O)C(CCNC(=O)c2ccc(Cl)cc2)=C(C)C1=O [4-chloro-N-(2-(2,4,5-trimethyl-3,6-dioxocyclohexa-1,4-dienyl)ethyl)benzamide]
< 150 nM: [1] | [2] | [3]

CC1=C(C)C(=O)C(CCCC(=O)NC(C)(C)CO)=C(C)C1=O [N-(1-hydroxy-2-methylpropan-2-yl)-4-(2,4,5-trimethyl-3,6-dioxocyclohexa-1,4-dienyl)butanamide]
< 150 nM: [1] | [3]

CC1=C(C)C(=O)C(CCNC(=O)c2ccc(F)cc2)=C(C)C1=O [4-fluoro-N-(2-(2,4,5-trimethyl-3,6-dioxocyclohexa-1,4-dienyl)ethyl)benzamide]
< 150 nM: [1] | [2] | [3]

CC1=C(C)C(=O)C(CCCC(=O)NCc2cccnc2)=C(C)C1=O [N-(pyridin-3-ylmethyl)-4-(2,4,5-trimethyl-3,6-dioxocyclohexa-1,4-dienyl)butanamide]
< 150 nM: [1] | [2] | [4]
